The record followed here is ChEMBL document CHEMBL5724709, “EUbOPEN Chemogenomics Library - IncuCyte” (2024).

Format in all cases: toxicity, cell-based
In one series the test system is Fibroblast. Nature of the series: Incucyte cell viability with human fibroblast. Particulars: 24 h, 10 µM, compound concentration 10 uM.
The subject of a further series is U2OS. Nature of the series: Incucyte cell viability with U2OS. Particulars: human, 24 h, 10 µM, compound concentration 10 uM.
The test system of a further series is HEK-293T. As to the kind of experiment: Incucyte cell viability with HEK293T. Particulars: human, 24 h, 10 µM, compound concentration 10 uM.

Structures are written as SMILES. Values joined by “and” are separate entries in the source; they are usually repeats but may differ in a detail not shown here. Equal values may be shown once.
Further: unitless GR value; below 1 slowed growth and below 0 cell loss.

On to `CCN(CC)S(=O)(=O)c1cc(Nc2nccc(-c3ccnc(-c4ccc(NC(=O)NC)cc4)c3)n2)ccc1Cl`, for which the “Growth Rate” value is given as 0.14 with Fibroblast (replicate number 1); -0.71 with Fibroblast (replicate number 2); -0.05 in the series with U2OS (replicate number 1); 0.12 with U2OS (replicate number 2); -0.42 with HEK-293T (replicate number 1); -0.23 with HEK-293T (replicate number 2).

Turning to `CC(C)N(CCCNC(=O)Nc1ccc(C(C)(C)C)cc1)C[C@H]1O[C@@H](n2ccc3c(N)ncnc32)[C@H](O)[C@@H]1O`, the “Growth Rate” value is listed as 1 in the series on Fibroblast (replicate number 1); 1 in the series on U2OS (replicate number 1); 0.59 with U2OS (replicate number 2); 0.74 in the series on HEK-293T (replicate number 1); 0.84 in the series on HEK-293T (replicate number 2).

For `CCNC(=O)NCCSC[C@H]1O[C@@H](n2cnc3c(N)ncnc32)[C@H](O)[C@@H]1O`, the “Growth Rate” value is on record as 0.65 in the series on Fibroblast (replicate number 1); 0 in the series on Fibroblast (replicate number 2); 1 in the series on U2OS (replicate number 1); 0.72 in the series on U2OS (replicate number 2); 0.71 in the series with HEK-293T (replicate number 1); 0.87 in the series with HEK-293T (replicate number 2).

Consider `CCN(c1cc(C#CCN2CCOCC2)cc(C(=O)NCc2c(C)cc(C)[nH]c2=O)c1C)[C@H]1CC[C@H](N(C)CCOC)CC1`, for which the “Growth Rate” value with Fibroblast (replicate number 1) is 1; with U2OS (replicate number 1), 1; in the series on U2OS (replicate number 2), 0.81; in the series with HEK-293T (replicate number 1), 0.57; with HEK-293T (replicate number 2), 0.74.

Take `CCCOc1ccc(CCc2nc3cc(-c4c(C)noc4C)ccc3n2CCN2CCOCC2)cc1`: the “Growth Rate” value in the series with Fibroblast (replicate number 1) was determined as 1; in the series with Fibroblast (replicate number 2), 0.67; in the series with U2OS (replicate number 1), 0.57; with U2OS (replicate number 2), 0.8; in the series with HEK-293T (replicate number 1), 0.54; in the series on HEK-293T (replicate number 2), 0.57.

Take `Cc1ccc(C(=O)NCCCCCC(=O)Nc2ccccc2N)cc1`: the “Growth Rate” value is 0.95 and 0.84 in the series on U2OS (replicate number 2); 1 with HEK-293T (replicate number 1).

In the case of `O=C(NC[C@H](O)CN1CCc2ccccc2C1)c1cc(NC2COC2)ncn1`, the “Growth Rate” value in the series on Fibroblast (replicate number 1) is recorded as 1; in the series with Fibroblast (replicate number 2) it was 0.5; in the series with U2OS (replicate number 1), 1; in the series on HEK-293T (replicate number 1) it was 0.54; in the series on HEK-293T (replicate number 2) it was 0.94.

In the case of `CS(=O)(=O)c1ccc(-c2cnc(NCc3ccco3)n3cnnc23)cc1`, the “Growth Rate” value with Fibroblast (replicate number 1) came to 1; with Fibroblast (replicate number 2), 0.87; in the series on U2OS (replicate number 1), 1; in the series on U2OS (replicate number 2), 0.66; in the series on HEK-293T (replicate number 1) it was 0.63; with HEK-293T (replicate number 2), 0.95.

With `CC(=O)N1CCc2c(c(N3CCCc4cc(-c5cnn(C)c5)c(C(F)F)cc43)nn2C2CCOCC2)C1`, the “Growth Rate” value is recorded as 0.79 in the series with Fibroblast (replicate number 1); 1 in the series on Fibroblast (replicate number 2); 1 in the series with U2OS (replicate number 1); 0.89 with U2OS (replicate number 2); 0.61 in the series on HEK-293T (replicate number 1); 0.51 with HEK-293T (replicate number 2).

In the case of `CNC(=O)N1CCc2c(c(N3CCCc4cc(-c5cnn(C)c5)c(C(F)F)cc43)nn2C2CCOCC2)C1`, the “Growth Rate” value is listed as 1 in the series with Fibroblast (replicate number 1); 0.36 in the series with Fibroblast (replicate number 2); 0.76 in the series with U2OS (replicate number 1); 1 with U2OS (replicate number 2); 0.56 in the series with HEK-293T (replicate number 1); 0.52 with HEK-293T (replicate number 2).

On to `Cc1cc2cc(NS(=O)(=O)c3ccc(C#N)cc3)ccc2n(C)c1=O`, for which the “Growth Rate” value with Fibroblast (replicate number 1) stood at 0.71; in the series on Fibroblast (replicate number 2) it was 0.65; with U2OS (replicate number 1) it was 1; in the series on HEK-293T (replicate number 1), 0.88.

Take `Cc1ncsc1-c1ccc(CNC(=O)[C@@H]2C[C@@H](O)CN2C(=O)[C@@H](NC(=O)COCCOCCOCCNC(=O)C[C@@H]2N=C(c3ccc(Cl)cc3)c3c(sc(C)c3C)-n3c(C)nnc32)C(C)(C)C)cc1`: the “Growth Rate” value in the series on Fibroblast (replicate number 1) is listed as 0.23; in the series with Fibroblast (replicate number 2), -0.26; in the series on U2OS (replicate number 1) it was -0.19; with U2OS (replicate number 2), 0.31; in the series with HEK-293T (replicate number 1) it was 0.01; with HEK-293T (replicate number 2), 0.16.

`Cc1nn(CC(F)(F)F)cc1Nc1ncc(Br)c(NCc2ccc(S(N)(=O)=O)cc2)n1`: the “Growth Rate” value was 1 in the series on Fibroblast (replicate number 1); 1 in the series with U2OS (replicate number 1); 0.83 with U2OS (replicate number 2); 0.53 in the series on HEK-293T (replicate number 1); 1 in the series with HEK-293T (replicate number 2).

Take `Cc1cc(-c2ccccc2)cc(C(=O)NNS(=O)(=O)c2ccccc2)c1F`: the “Growth Rate” value came to 1 with Fibroblast (replicate number 1); 0.27 in the series on Fibroblast (replicate number 2); 0.87 in the series on U2OS (replicate number 1); 0.89 with U2OS (replicate number 2); 0.49 in the series on HEK-293T (replicate number 1); 0.81 in the series with HEK-293T (replicate number 2).

Take `O=C(NCCc1cc(C(=O)NO)no1)c1ccc(Cl)c(Cl)c1`: the “Growth Rate” value came to 1 with Fibroblast (replicate number 1); 0.22 in the series with Fibroblast (replicate number 2); 0.33 in the series with U2OS (replicate number 1); 1 with U2OS (replicate number 2); 0.99 in the series with HEK-293T (replicate number 1); 1 in the series with HEK-293T (replicate number 2).

Take `C[C@H](Nc1cc(Cl)nc2c1cnn2[C@@H]1O[C@H](COP(=O)(O)CP(=O)(O)O)[C@@H](O)[C@H]1O)c1ccccc1F`: the “Growth Rate” value with Fibroblast (replicate number 1) worked out at 0.88; with Fibroblast (replicate number 2), 1; with U2OS (replicate number 1), 1; in the series with HEK-293T (replicate number 1) it was 0.88; with HEK-293T (replicate number 2), 1.

As to `C[C@H]1CCCN1Cc1nc2cc(NC(=O)c3ccc4c(cnn4C)c3)ccc2[nH]1`, the “Growth Rate” value in the series with Fibroblast (replicate number 1) came to 1; with Fibroblast (replicate number 2) it was 0.78; in the series with U2OS (replicate number 1), 0.16; in the series on U2OS (replicate number 2), 0.68; in the series with HEK-293T (replicate number 1) it was 0.37; in the series on HEK-293T (replicate number 2) it was 0.49.

In the case of `C[C@H](CN[C@@H](C(=O)Nc1ccc(-c2cnn(C)c2)cn1)c1ccccc1)c1ccc(C#N)cc1`, the “Growth Rate” value in the series with Fibroblast (replicate number 1) is recorded as 0.34; in the series on Fibroblast (replicate number 2) it was -0.53; in the series on U2OS (replicate number 1), 0.58; in the series on U2OS (replicate number 2) it was 0.39; in the series on HEK-293T (replicate number 1), 0.04; in the series with HEK-293T (replicate number 2) it was 0.3.

In the case of `CCCOc1cccc(Oc2cc3c(cc2NS(=O)(=O)c2cccc(C(=O)NCCOCCOCCOCC(=O)N[C@H](C(=O)N4C[C@H](O)C[C@H]4C(=O)NCc4ccc(-c5scnc5C)cc4)C(C)(C)C)c2)n(C)c(=O)n3C)c1`, the “Growth Rate” value in the series on Fibroblast (replicate number 1) was 1; with U2OS (replicate number 1), 0.91; in the series on U2OS (replicate number 2), 0.63; with HEK-293T (replicate number 1), 0.11; in the series on HEK-293T (replicate number 2), 0.31.

As for `Cc1ncsc1-c1ccc(CNC(=O)[C@@H]2C[C@@H](O)CN2C(=O)[C@@H](NC(=O)COCC(C)(COCCOCCOCCNC(=O)C[C@@H]2N=C(c3ccc(Cl)cc3)c3c(sc(C)c3C)-n3c(C)nnc32)COCCOCCOCCNC(=O)C[C@@H]2N=C(c3ccc(Cl)cc3)c3c(sc(C)c3C)-n3c(C)nnc32)C(C)(C)C)cc1`, the “Growth Rate” value in the series with Fibroblast (replicate number 1) was determined as 1; in the series with U2OS (replicate number 1) it was 0.43; with U2OS (replicate number 2), 0.95; in the series on HEK-293T (replicate number 1), 1.

Regarding `Cn1c(=O)c2c(nc(N3CCNCC3)n2Cc2nnc(-c3ccc(Cl)c(Cl)c3)o2)n(C)c1=O`, the “Growth Rate” value with Fibroblast (replicate number 1) was determined as 1; in the series on U2OS (replicate number 1), 1; in the series on U2OS (replicate number 2) it was 0.88; in the series with HEK-293T (replicate number 1), 0.79; in the series with HEK-293T (replicate number 2) it was 1.
